Calls of active or inactive are those of the source. The rule behind the calls is not given here.
Legend:
[1] = biological target: Eukaryotic translation initiation factor 4E/Eukaryotic translation initiation factor 4E-binding protein 1 (Homo sapiens, UniProt P06730+Q13541); assay: Inhibition of eIF4E-4E-BP1 (unknown origin) interaction by cat-ELCCA assay; type: protein assay
MIA PaCa-2 = assay: Antiproliferative activity against human MIA PaCa-2 cells by Cell Titer Glo assay; type: functional, cell-based
[2] = biological target: Eukaryotic translation initiation factor 4E (Homo sapiens) (UniProt P06730); assay: Binding affinity to eIF4E in HEK293 cell lysate assessed as thermal stability at 25 uM at 42 to 53 degreeC by CETSA; type: subcellular
Chain of Eukaryotic translation initiation factor 4E (Homo sapiens) (P06730 whole entry): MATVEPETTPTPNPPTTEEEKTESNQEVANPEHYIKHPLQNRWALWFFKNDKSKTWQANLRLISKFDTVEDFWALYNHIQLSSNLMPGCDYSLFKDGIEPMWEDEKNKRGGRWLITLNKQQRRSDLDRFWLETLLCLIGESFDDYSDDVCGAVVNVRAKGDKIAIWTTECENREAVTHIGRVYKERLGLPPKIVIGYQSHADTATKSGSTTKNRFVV

Chain of Eukaryotic translation initiation factor 4E/Eukaryotic translation initiation factor 4E-binding protein 1 (P06730 whole entry): as above
Chain of Eukaryotic translation initiation factor 4E/Eukaryotic translation initiation factor 4E-binding protein 1 (Q13541 whole entry): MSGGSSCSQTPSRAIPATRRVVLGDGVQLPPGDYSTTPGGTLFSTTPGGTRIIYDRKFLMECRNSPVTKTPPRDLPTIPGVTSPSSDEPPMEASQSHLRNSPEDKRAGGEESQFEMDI

EC50 ([1]; read-out: EC50)	SMILES	further results
68 µM	O=C(O)c1ccc(=O)c2nc3c4c(ccc3[nH]c1-2)[C@@H]1Cc2nc3cccc(O)c3nc2[C@H](O4)[C@H]1O	–
7.8 µM	O=C(O)c1cc2c(c3nc4c(O)cccc4nc13)O[C@@H]1[C@H](O)c3nc4cccc(O)c4nc3C[C@H]21	Activity (MIA PaCa-2): inactive; Activity [2]: Active

Second part, the compound before the results:

SMILES	EC50 ([1]; read-out: EC50)	further results
Oc1cccc2nc3c(O)cccc3nc12	–	EC50 [1]: Not Active
O=C(O)c1cc2c(c3nc4c(O)cccc4nc13)[C@@H]1Cc3nc4cccc(O)c4nc3[C@@](O)(C1)O2	–	EC50 [1]: Not Active
O=C(O)c1ccc(O)c2nc3c4c(ccc3nc12)[C@@H]1Cc2nc3cccc(O)c3nc2[C@H](O4)[C@H]1O	310 µM	–
O=C(O)c1cc2c(c3nc4c(O)cccc4nc13)[C@@H]1Cc3nc4cccc(O)c4nc3[C@@H](O)[C@@H]1O2 [IZUMIPHENAZINE A]	240 µM	–
O=C(O)c1cc2c(c3nc4c(O)cccc4nc13)[C@@H]1Cc3nc4cccc(O)c4nc3[C@H](O2)[C@H]1O	260 µM	–

— ChEMBL document CHEMBL5360598, “An ECD and NMR/DP4+ Computational Pipeline for Structure Revision and Elucidation of Diphenazine-Based Natural Products” (J Nat Prod, 2023)
